# In ChEMBL document CHEMBL4346757, “Synthesis and biological evaluation of 7-methoxy-1-(3,4,5-trimethoxyphenyl)-4,5-dihydro-2H-benzo[e]indazoles as new colchicine site inhibitors” (Bioorg Med Chem Lett, 2019):
# Columns and labels:
# Format in all cases: functional
# SK-MEL-2 [1] = test: Cytotoxicity against human SK-MEL-2 cells assessed as growth inhibition after 48 hrs by SRB assay; conditions: SK-MEL-2, 48 h
# UACC-257 [2] = test: Growth inhibition of human UACC257 cells assessed as cell growth at 10 uM after 48 hrs by SRB assay relative to control; conditions: UACC-257, 48 h, read-out: Activity
# UO-31 [3] = test: Growth inhibition of human UO31 cells assessed as cell growth at 100 uM after 48 hrs by SRB assay relative to control; conditions: UO-31, 48 h, read-out: Activity
# ACHN [4] = test: Cytotoxicity against human ACHN cells assessed as growth inhibition after 48 hrs by SRB assay
# COLO 205 = test: Growth inhibition of human COLO205 cells assessed as cell growth at 0.01 uM after 48 hrs by SRB assay relative to control; conditions: COLO 205, 48 h, read-out: Activity
# KM12 = test: Cytotoxicity against human KM12 cells assessed as growth inhibition after 48 hrs by SRB assay; conditions: KM12, 48 h
# RXF 393 = test: Growth inhibition of human RXF393 cells assessed as cell growth at 0.01 uM after 48 hrs by SRB assay relative to control; conditions: RXF 393, 48 h, read-out: Activity
# SK-MEL-2 [5] = test: Growth inhibition of human SK-MEL-2 cells assessed as cell growth at 10 uM after 48 hrs by SRB assay relative to control; conditions: SK-MEL-2, 48 h, read-out: Activity
# OVCAR-3 = test: Growth inhibition of human OVCAR3 cells assessed as cell growth at 0.1 uM after 48 hrs by SRB assay relative to control; conditions: OVCAR-3, 48 h, read-out: Activity
# HCT-15 = test: Growth inhibition of human HCT15 cells assessed as cell growth at 1 uM after 48 hrs by SRB assay relative to control; conditions: HCT-15, 48 h, read-out: Activity
# EKVX = test: Growth inhibition of human EKVX cells assessed as cell growth at 100 uM after 48 hrs by SRB assay relative to control; conditions: read-out: Activity
# BT-549 = test: Growth inhibition of human BT549 cells assessed as cell growth at 1 uM after 48 hrs by SRB assay relative to control; conditions: BT-549, 48 h, read-out: Activity
# NCI-H460 [6] = test: Cytotoxicity against human NCI-H460 cells assessed as growth inhibition after 48 hrs by SRB assay; conditions: NCI-H460, 48 h
# NCI-H460 [7] = test: Growth inhibition of human NCI-H460 cells assessed as cell growth at 0.01 uM after 48 hrs by SRB assay relative to control; conditions: NCI-H460, 48 h, read-out: Activity
# NCI-H23 [8] = test: Growth inhibition of human NCI-H23 cells assessed as cell growth at 1 uM after 48 hrs by SRB assay relative to control; conditions: NCI-H23, 48 h, read-out: Activity
# ACHN [9] = test: Growth inhibition of human ACHN cells assessed as cell growth at 1 uM after 48 hrs by SRB assay relative to control; conditions: read-out: Activity
# UO-31 [10] = test: Growth inhibition of human UO31 cells assessed as cell growth at 0.1 uM after 48 hrs by SRB assay relative to control; conditions: UO-31, 48 h, read-out: Activity
# HCT-116 = test: Growth inhibition of human HCT116 cells assessed as cell growth at 1 uM after 48 hrs by SRB assay relative to control; conditions: HCT-116, 48 h, read-out: Activity
# HT-29 = test: Growth inhibition of human HT-29 cells assessed as cell growth at 1 uM after 48 hrs by SRB assay relative to control; conditions: HT-29, 48 h, read-out: Activity
# DU-145 = test: Growth inhibition of human DU145 cells assessed as cell growth at 0.01 uM after 48 hrs by SRB assay relative to control; conditions: DU-145, 48 h, read-out: Activity
# 786-0 = test: Growth inhibition of human 786-0 cells assessed as cell growth at 0.1 uM after 48 hrs by SRB assay relative to control; conditions: 786-0, 48 h, read-out: Activity
# MDA-MB-231 = test: Cytotoxicity against human MDA-MB-231/ATCC cells assessed as growth inhibition after 48 hrs by SRB assay; conditions: MDA-MB-231, 48 h
# LOX IMVI = test: Growth inhibition of human LOXIMVI cells assessed as cell growth at 0.01 uM after 48 hrs by SRB assay relative to control; conditions: read-out: Activity
# MOLT-4 = test: Cytotoxicity against human MOLT4 cells assessed as growth inhibition after 48 hrs by SRB assay; conditions: MOLT-4, 48 h
# UACC-257 [11] = test: Growth inhibition of human UACC257 cells assessed as cell growth at 100 uM after 48 hrs by SRB assay relative to control; conditions: UACC-257, 48 h, read-out: Activity
# NCI-H460 [12] = test: Growth inhibition of human NCI-H460 cells assessed as cell growth at 1 uM after 48 hrs by SRB assay relative to control; conditions: NCI-H460, 48 h, read-out: Activity
# NCI-H23 [13] = test: Growth inhibition of human NCI-H23 cells assessed as cell growth at 0.1 uM after 48 hrs by SRB assay relative to control; conditions: NCI-H23, 48 h, read-out: Activity
# RPMI-8226 = test: Growth inhibition of human RPMI8226 cells assessed as cell growth at 0.01 uM after 48 hrs by SRB assay relative to control; conditions: RPMI-8226, 48 h, read-out: Activity
# IGROV-1 = test: Growth inhibition of human IGROV1 cells assessed as cell growth at 0.01 uM after 48 hrs by SRB assay relative to control; conditions: IGROV-1, 48 h, read-out: Activity
# [14] = read-out: LC50 (the source's name)
# [15] = read-out: pLC50 (the source's name) (converted)
smiles,measurement,setting,value
COc1ccc2c(c1)CCc1n[nH]c(-c3cc(OC)c(OC)c(OC)c3)c1-2,GI50,SK-MEL-2 [1]; read-out: GI50,< 0.01 µM
same,LC50,SK-MEL-2 [1]; read-out: LC50,98.7 µM
same,TGI,SK-MEL-2 [1]; read-out: TGI,26.8 µM
same,GI50,SK-MEL-2 [1]; read-out: pGI50 (converted),< 0.01 µM
same,LC50,SK-MEL-2 [1]; read-out: pLC50 (converted),97.7 µM
same,TGI,SK-MEL-2 [1]; read-out: pTGI (converted),26.9 µM
same,growth at 10 µM,UACC-257 [2],56%
same,growth at 100 µM,UO-31 [3],-43%
same,GI50,ACHN [4]; read-out: GI50,< 0.01 µM
same,LC50,ACHN [4]; read-out: LC50,> 100 µM
same,TGI,ACHN [4]; read-out: TGI,21.7 µM
same,GI50,ACHN [4]; read-out: pGI50 (converted),< 0.01 µM
same,LC50,ACHN [4]; read-out: pLC50 (converted),> 100 µM
same,TGI,ACHN [4]; read-out: pTGI (converted),21.9 µM
same,growth at 0.01 µM,COLO 205,-23%
same,GI50,KM12; read-out: GI50,< 0.01 µM
same,CC50,KM12; [14],46.5 µM
same,TGI,KM12; read-out: TGI,11.8 µM
same,GI50,KM12; read-out: pGI50 (converted),< 0.01 µM
same,CC50,KM12; [15],46.8 µM
same,TGI,KM12; read-out: pTGI (converted),11.7 µM
same,growth at 0.01 µM,RXF 393,-8%
same,growth at 10 µM,SK-MEL-2 [5],38%
same,growth at 0.1 µM,OVCAR-3,12%
same,growth at 1 µM,HCT-15,4%
same,growth at 100 µM,EKVX,-25%
same,growth at 1 µM,BT-549,3%
same,GI50,NCI-H460 [6]; read-out: GI50,< 0.01 µM
same,CC50,NCI-H460 [6]; [14],68.5 µM
same,TGI,NCI-H460 [6]; read-out: TGI,2.06 µM
same,GI50,NCI-H460 [6]; read-out: pGI50 (converted),< 0.01 µM
same,CC50,NCI-H460 [6]; [15],69.2 µM
same,TGI,NCI-H460 [6]; read-out: pTGI (converted),2.04 µM
same,growth at 0.01 µM,NCI-H460 [7],3%
same,growth at 1 µM,NCI-H23 [8],7%
same,growth at 1 µM,ACHN [9],25%
same,growth at 0.1 µM,UO-31 [10],30%
same,growth at 1 µM,HCT-116,1%
same,growth at 1 µM,HT-29,5%
same,growth at 0.01 µM,DU-145,13%
same,growth at 0.1 µM,786-0,17%
same,GI50,MDA-MB-231; read-out: GI50,< 0.01 µM
same,LC50 (concentration killing 50% of cells),MDA-MB-231; read-out: LC50,> 100 µM
same,TGI,MDA-MB-231; read-out: TGI,44.8 µM
same,GI50,MDA-MB-231; read-out: pGI50 (converted),< 0.01 µM
same,LC50 (concentration killing 50% of cells),MDA-MB-231; read-out: pLC50 (converted),> 100 µM
same,TGI,MDA-MB-231; read-out: pTGI (converted),44.7 µM
same,growth at 0.01 µM,LOX IMVI,21%
same,GI50,MOLT-4; read-out: GI50,< 0.01 µM
same,CC50,MOLT-4; [14],> 100 µM
same,TGI,MOLT-4; read-out: TGI,> 100 µM
same,GI50,MOLT-4; read-out: pGI50 (converted),< 0.01 µM
same,CC50,MOLT-4; [15],> 100 µM
same,TGI,MOLT-4; read-out: pTGI,> 100 µM
same,growth at 100 µM,UACC-257 [11],-49%
same,growth at 1 µM,NCI-H460 [12],2%
same,growth at 0.1 µM,NCI-H23 [13],5%
same,growth at 0.01 µM,RPMI-8226,45%
same,growth at 0.01 µM,IGROV-1,39%
